{
  "source": "paper PMC5059578",
  "about": "“Construction of a Turn Off-On-Off Fluorescent System Based on Competitive Coordination of Cu^2+ between 6,7-Dihydroxycoumarin and Pyrophosphate Ion for Sensitive Assay of Pyrophosphatase Activity” (Journal of Analytical Methods in Chemistry, 2016)",
  "target": "T1, Baker's yeast inorganic pyrophosphatase (PPase, EC 3.6.1.1) (Saccharomyces cerevisiae, UniProt P00817)",
  "T1 construct": "gene IPP1",
  "T1 sequence (P00817 2-287)": "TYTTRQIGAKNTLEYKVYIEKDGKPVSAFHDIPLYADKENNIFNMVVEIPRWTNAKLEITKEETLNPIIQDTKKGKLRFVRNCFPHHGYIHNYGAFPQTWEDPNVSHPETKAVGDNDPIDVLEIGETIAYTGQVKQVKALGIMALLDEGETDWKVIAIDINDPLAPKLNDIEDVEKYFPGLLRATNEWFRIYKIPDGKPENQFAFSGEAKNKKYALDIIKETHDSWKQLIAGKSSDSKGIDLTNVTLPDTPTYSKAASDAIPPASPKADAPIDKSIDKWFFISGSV",
  "assay": "Fluorescent Cu2+-DHC-PPi displacement assay of PPase activity after preincubation with NaF",
  "type": "biochemical",
  "data": [
    {"smiles": "[F-].[Na+]", "note": "[NaF]", "values": [
      {"measurement": "IC50", "value": "~18.2", "unit": "µM"}
    ]}
  ]
}
